Measured values as given in US20130059900A1, “CRYSTAL FORM I OF (S)-4-HYDROXY-2-OXO-1-PYRROLIDINE ACETAMIDE, PREPARING METHOD AND USE THEREOF” (priority 2010, published 2013).

Tested on: rats having permanent occlusion of the bilateral carotid arteries
Assay: Morris Water Maze, memory dysfunction of rats caused by chronic cerebral ischemia
Format: in vivo, SD male rats
Settings: once per day for 37 days; for swimming time of the rats in the target: cerebral ischemia rats
Protocol: The protective effects of crystal form I of (S)-oxiracetam on memory dysfunction of rats caused by chronic cerebral ischemia. Material and method: The crystal form I of (S)-oxiracetam prepared in Example 1 and oxiracetam (batch number: 20071101, from Dong Ze Pharmaceutical Science and Technology Co., Ltd., Chong Qing, China) were prepared with normal saline solution freshly on being used. 40 SD male rats were used as experimental animals, and each of them was in a weight of 190 g to 220 g (purchased from Southwest Hospital, Chong Qing, China). The experimental animals were separated into four groups at random (10 animals per group): sham-operation group, cerebral ischemia group, experimental group with treatment of crystal form I of (S)-oxiracetam, control group with treatment of oxiracetam. The experimental group was treated with 100 mg/kg crystal form I of (S)-oxiracetam by intragastric administration, while the control group was treated with 200 mg/kg oxiracetam by intragastric administration, and both of the two group were treated once per day for 37 days since the day of beginning the surgery. The rats having permanent occlusion of the bilateral carotid arteries were used as model animals of cerebral ischemia group. The cerebral ischemia group, the experimental group and the control group were abdominally anaesthetized by 40 mg/kg pentobarbital natrium. The No. 4 threads were used to separate and ligate the bilateral carotid arteries. The arteries were cut at a position between the near and the far ligation points, and then the wounds made by cut were surgically stitched. The sham-operation group underwent surgery of separation of the bilateral carotid arteries and the wounds made by the surgeries were surgically stitched right away. The body temperature of the animals are maintained during the surgeries. Morris Water Maze system was used to assayed learning and memory ability of rats (diameter: 120 cm, height: 40 cm; purchased from Institute of Materia Medica (IMM), Chinese Academy of Medical Sciences & Peking Union Medical College). […]

Row | SMILES | swimming time of the rats in the target (200 mg/kg intragastric, oxiracetam control group) | swimming time of the rats in the target (100 mg/kg intragastric, vs 20.18±5.26 seconds, P<0.01) | escape latent periods (100 mg/kg intragastric, compared with sham-operation group, cerebral ischemia group and oxiracetam control group)
1 | NC(=O)CN1CC(O)CC1=O (racemic) [oxiracetam, reference compound] | 31.23 ± 5.03 s |  | 
2 | NC(=O)CN1C[C@@H](O)CC1=O [crystal form I of (S)-oxiracetam, (S)-4-hydroxy-2-oxo-1-pyrrolidine acetamide] |  | 35.23 ± 7.03 s | shorter escape latent periods
